# Results from patent US9737587B2, “Treatment of autism spectrum disorders with ciliary neurotrophic factor peptide mimetic” (The Research Foundation for Mental Hygiene, Inc., priority 2014, dated 2017).
# No end group written: not given here.
# Key:
# mice or rats = settings: in vivo
# human = human clinical trials; cited from earlier work
half-life (in vivo) [h],Molecule,adverse effects associated with the full-length protein (CNTF) (mice or rats),adverse effects (human)
> 6,"VGDGGLFEKKL [Peptide P6, VGDGGLFEKKL]",does not cause adverse effects associated with the full-length protein,–
–,"recombinant CNTF: recombinant full-length ciliary neurotrophic factor (protein, UniProt P26441 1-200, looked up, full-length, recombinant full-length ciliary neurotrophic factor) MAFTEHSPLTPHRRDLCSRSIWLARKIRSDLTALTESYVKHQGLNKNINLDSADGMPVASTDQWSELTEAERLQENLQAYRTFHVLLARLLEDQQVHFTPTEGDFHQAIHTLLLQVAAFAYQIEELMILLEYKIPRNEADGMPINVGDGGLFEKKLWGLKVLQELSQWTVRSIHDLRFISSHQTGIPARGSHYIANNKKM",–,"anorexia, skeletal muscle loss, hyperalgesia, severe cramps, and muscle pain"
